The source of these data is BindingDB's records for doi:10.1016/j.bmc.2014.04.026 (Florida A&M University, 2014).

This assay concerns the target D(3) dopamine receptor (Homo sapiens, UniProt P35462). The assay can be described thus: Displacement of [3H]N-methylspiperone from human dopamine D3 receptor by PDSP assay. (In general: Displacement assays read how much labelled ligand stays bound in the presence of the test substance.)

D(3) dopamine receptor, sequence (P35462 as listed by the source): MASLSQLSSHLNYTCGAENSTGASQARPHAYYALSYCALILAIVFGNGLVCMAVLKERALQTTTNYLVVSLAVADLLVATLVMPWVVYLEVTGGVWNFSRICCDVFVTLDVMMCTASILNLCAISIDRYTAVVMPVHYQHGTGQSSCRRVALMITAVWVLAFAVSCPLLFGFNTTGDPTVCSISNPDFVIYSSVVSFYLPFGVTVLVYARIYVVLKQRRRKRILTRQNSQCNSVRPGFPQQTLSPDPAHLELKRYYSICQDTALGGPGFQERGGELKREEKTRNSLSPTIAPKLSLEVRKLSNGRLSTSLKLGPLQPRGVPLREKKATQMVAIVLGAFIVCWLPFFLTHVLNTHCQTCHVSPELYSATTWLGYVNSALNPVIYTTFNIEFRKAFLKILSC

As for `Clc1ccc(N2C[C@H]3C[C@@H]2CN3CCCc2cc3ccccc3o2)cc1`, the affinity corresponds to a Ki of 671 nM.

For orientation: Ki means the equilibrium dissociation constant of an inhibitor or competing ligand from its target. Read a low Ki as higher affinity.
